Marks after values point to notes of the source that are not given here.
Legend:
Septoria tritici = assay: Test G: wheat leaf blotch, preventive spray on wheat seedlings, visual disease rating; conditions: for pest or weed control at 200 µg/mL: Zymoseptoria tritici, in Triticum aestivum, 504 h, read-out: Test G rating (% disease control); for Test G rating (% disease control) / Test G disease control rating: 100 = 100% disease control; for Test G disease control rating: sprayed the day before inoculation, 0 = no disease control relative to controls
Alternaria solani = assay: Test C: tomato early blight, preventive spray on tomato seedlings, visual disease rating; conditions: for pest or weed control at 200 µg/mL: Alternaria solani, in Solanum lycopersicum, 168 h, read-out: Test C rating (% disease control); for Test C rating (% disease control) / Test C disease control rating: 100 = 100% disease control; for Test C disease control rating: 0 = no disease control relative to controls
[1] = system: Puccinia recondita f. sp. tritici; assay: Test I: wheat leaf rust, preventive spray on wheat seedlings, visual disease rating; conditions: for pest or weed control at 200 µg/mL: 192 h, read-out: Test I rating (% disease control); for Test I rating (% disease control) / Test I disease control rating: 100 = 100% disease control; for Test I disease control rating: sprayed the day before inoculation, 0 = no disease control relative to controls
[2] = system: Erysiphe graminis f sp. tritici; assay: Test J: wheat powdery mildew, preventive spray on wheat seedlings, visual disease rating; conditions: for pest or weed control at 200 µg/mL: Blumeria graminis, in Triticum aestivum, 192 h, read-out: Test J rating (% disease control); for Test J rating (% disease control) / Test J disease control rating: 100 = 100% disease control; for Test J disease control rating: sprayed the day before inoculation, 0 = no disease control relative to controls
[3] = system: Puccinia recondita f. sp. tritici; assay: Test H: wheat leaf rust, curative spray on inoculated wheat seedlings, visual disease rating; conditions: for pest or weed control at 200 µg/mL: 144 h, read-out: Test H rating (% disease control); for Test H rating (% disease control) / Test H disease control rating: 100 = 100% disease control; for Test H disease control rating: sprayed after inoculation, 0 = no disease control relative to controls
Septoria nodorum = assay: Test F: Septoria glume blotch, preventive spray on wheat seedlings, visual disease rating; conditions: for pest or weed control at 200 µg/mL: Parastagonospora nodorum, in Triticum aestivum, 192 h, read-out: Test F rating (% disease control); for Test F rating (% disease control) / Test F disease control rating: 100 = 100% disease control; for Test F disease control rating: 0 = no disease control relative to controls
Botrytis cinerea = assay: Test B: tomato Botrytis, preventive spray on tomato seedlings, visual disease rating; conditions: for pest or weed control at 200 µg/mL: Botrytis cinerea, in Solanum lycopersicum, 120 h, read-out: Test B rating (% disease control); for Test B rating (% disease control) / Test B disease control rating: 100 = 100% disease control; for Test B disease control rating: 0 = no disease control relative to controls
[4] = wheat leaf blotch, 0 = no control relative to controls
[5] = tomato early blight, 0 = no control relative to controls
[6] = wheat leaf rust, preventive, 0 = no control relative to controls
[7] = wheat powdery mildew, 0 = no control relative to controls
[8] = wheat leaf rust, curative, 0 = no control relative to controls
[9] = Septoria glume blotch, 0 = no control relative to controls
[10] = tomato Botrytis, 0 = no control relative to controls
[11] = wheat leaf blotch, preventive spray, 0 = no control
[12] = tomato early blight, preventive spray, 0 = no control
[13] = wheat leaf rust, preventive spray, 0 = no control
[14] = wheat powdery mildew, preventive spray, 0 = no control
[15] = wheat leaf rust, curative spray, 0 = no control
[16] = Septoria glume blotch on wheat, preventive spray, 0 = no control
[17] = tomato Botrytis, preventive spray, 0 = no control

COc1cc(F)c(-c2c(C)nn(C)c2Oc2c(F)cc(Cl)cc2F)c(F)c1 [Compound 58, 5-(4-Chloro-2,6-difluorophenoxy)-4-(2,6-difluoro-4-methoxyphenyl)-1,3-dimethyl-1H-pyrazole]
pest or weed control at 200 µg/mL (Septoria tritici): 98% | pest or weed control at 200 µg/mL (Alternaria solani): 100% | pest or weed control at 200 µg/mL [1]: 100% | pest or weed control at 200 µg/mL [2]: 100% | pest or weed control at 200 µg/mL [3]: 82% | pest or weed control at 200 µg/mL (Septoria nodorum): 89% | pest or weed control at 200 µg/mL (Botrytis cinerea): 98%

Cc1nn(C)c(Oc2cc(C#N)c(C#N)cc2Cl)c1-c1c(F)cc(F)cc1F [compound 163]
Test G rating (% disease control) (Septoria tritici; [4]): 83% | Test C rating (% disease control) (Alternaria solani; [5]): 9% | Test I rating (% disease control) [1, 6]: 88% | Test J rating (% disease control) [2, 7]: 0% | Test H rating (% disease control) [3, 8]: 0% | Test F rating (% disease control) (Septoria nodorum; [9]): 0% | Test B rating (% disease control) (Botrytis cinerea; [10]): 0%

Cc1nn(C)c(Oc2ccc([N+](=O)[O-])c(F)c2)c1-c1c(F)cc(F)cc1F [compound 131]
Test G rating (% disease control) (Septoria tritici; [11]): 98% | Test C rating (% disease control) (Alternaria solani; [12]): 0% | Test I rating (% disease control) [1, 13]: 86% | Test J rating (% disease control) [2, 14]: 94% | Test H rating (% disease control) [3, 15]: 0% | Test F rating (% disease control) (Septoria nodorum; [16]): 0% | Test B rating (% disease control) (Botrytis cinerea; [17]): 99%

COc1cc(Oc2c(-c3c(F)cc(F)cc3F)c(C)nn2C)ccc1Cl [compound 164]
Test G rating (% disease control) (Septoria tritici; [4]): 99% | Test C rating (% disease control) (Alternaria solani; [5]): 57% | Test I rating (% disease control) [1, 6]: 9% | Test J rating (% disease control) [2, 7]: 97% | Test H rating (% disease control) [3, 8]: 15% | Test F rating (% disease control) (Septoria nodorum; [9]): 0% | Test B rating (% disease control) (Botrytis cinerea; [10]): 49%

Cc1nn(C)c(Nc2cc(Cl)ccc2Cl)c1-c1c(F)cc(C#N)cc1F [compound 146]
Test G rating (% disease control) (Septoria tritici; [11]): 99% | Test C rating (% disease control) (Alternaria solani; [12]): 0% | Test I rating (% disease control) [1, 13]: 97% | Test J rating (% disease control) [2, 14]: 56% | Test H rating (% disease control) [3, 15]: 0% | Test F rating (% disease control) (Septoria nodorum; [16]): 0% | Test B rating (% disease control) (Botrytis cinerea; [17]): 99%

Cc1nn(C)c(Nc2c(F)cc(C#N)cc2F)c1-c1ccc(F)cc1Cl [Compound 91, 4-[[4-(2-chloro-4-fluorophenyl)-1,3-dimethyl-1H-pyrazol-5-yl]amino]-3,5-difluorobenzonitrile]
pest or weed control at 200 µg/mL (Septoria tritici): 99% | pest or weed control at 200 µg/mL (Alternaria solani): 99% | pest or weed control at 200 µg/mL [1]: 100% | pest or weed control at 200 µg/mL [2]: 100% | pest or weed control at 200 µg/mL [3]: 0% | pest or weed control at 200 µg/mL (Septoria nodorum): 95% | pest or weed control at 200 µg/mL (Botrytis cinerea): 100%

Cc1nn(C)c(Nc2ncc(F)cc2F)c1-c1ccccc1C(F)(F)F [compound 280]
Test G rating (% disease control) (Septoria tritici; [4]): 96% | Test C rating (% disease control) (Alternaria solani; [5]): 0% | Test I rating (% disease control) [1, 6]: 18% | Test J rating (% disease control) [2, 7]: 87% | Test H rating (% disease control) [3, 8]: 8% | Test F rating (% disease control) (Septoria nodorum; [9]): 0% | Test B rating (% disease control) (Botrytis cinerea; [10]): 99%

COc1ccc(Nc2c(-c3ccc(F)cc3Br)c(C)nn2C)c(Cl)c1 [compound 324]
Test G disease control rating (Septoria tritici; wheat leaf blotch): 100% | Test C disease control rating (Alternaria solani; tomato early blight): 83% | Test I disease control rating ([1]; wheat leaf rust): 99% | Test J disease control rating ([2]; wheat powdery mildew): 99% | Test H disease control rating ([3]; wheat leaf rust): 63% | Test F disease control rating (Septoria nodorum; Septoria glume blotch on wheat): 0% | Test B disease control rating (Botrytis cinerea; tomato Botrytis): 99%

Cc1nn(C)c(Nc2cc(Cl)ccc2Cl)c1-c1ccc(F)cc1F [compound 245]
Test G rating (% disease control) (Septoria tritici; [4]): 97% | Test C rating (% disease control) (Alternaria solani; [5]): 0% | Test I rating (% disease control) [1, 6]: 68% | Test J rating (% disease control) [2, 7]: 93% | Test H rating (% disease control) [3, 8]: 0% | Test F rating (% disease control) (Septoria nodorum; [9]): 0% | Test B rating (% disease control) (Botrytis cinerea; [10]): 90%

Cc1nn(CC(=O)O)c(Oc2c(F)cc([N+](=O)[O-])cc2F)c1-c1c(F)cc(F)cc1F [compound 68]
Test G rating (% disease control) (Septoria tritici; [11]): 0% | Test C rating (% disease control) (Alternaria solani; [12]): 0% | Test I rating (% disease control) [1, 13]: 0% | Test J rating (% disease control) [2, 14]: 0% | Test H rating (% disease control) [3, 15]: 6% | Test F rating (% disease control) (Septoria nodorum; [16]): 0% | Test B rating (% disease control) (Botrytis cinerea; [17]): 0%

Cc1nn(C)c(Oc2ncc(C(F)(F)F)cc2Cl)c1-c1ccc(F)cc1Br [compound 261]
Test G rating (% disease control) (Septoria tritici; [4]): 0% | Test C rating (% disease control) (Alternaria solani; [5]): 0% | Test I rating (% disease control) [1, 6]: 0% | Test J rating (% disease control) [2, 7]: 47% | Test H rating (% disease control) [3, 8]: 0% | Test F rating (% disease control) (Septoria nodorum; [9]): 0% | Test B rating (% disease control) (Botrytis cinerea; [10]): 0%

Cc1nn(C)c(Oc2c(F)cc(C#N)cc2F)c1-c1cccnc1Cl [compound 308]
Test G disease control rating (Septoria tritici; wheat leaf blotch): 98% | Test C disease control rating (Alternaria solani; tomato early blight): 0% | Test I disease control rating ([1]; wheat leaf rust): 100% | Test J disease control rating ([2]; wheat powdery mildew): 0% | Test H disease control rating ([3]; wheat leaf rust): 9% | Test F disease control rating (Septoria nodorum; Septoria glume blotch on wheat): 0% | Test B disease control rating (Botrytis cinerea; tomato Botrytis): 81%

Cc1nn(C)c(Nc2ccc(F)cc2Cl)c1-c1c(Cl)cccc1Cl [compound 334]
Test G disease control rating (Septoria tritici; wheat leaf blotch): 100% | Test C disease control rating (Alternaria solani; tomato early blight): 0% | Test I disease control rating ([1]; wheat leaf rust): 97% | Test J disease control rating ([2]; wheat powdery mildew): 100% | Test H disease control rating ([3]; wheat leaf rust): 0% | Test F disease control rating (Septoria nodorum; Septoria glume blotch on wheat): 0% | Test B disease control rating (Botrytis cinerea; tomato Botrytis): 100%

Cc1nn(C)c(Nc2ccc(F)cc2Br)c1-c1ccc(F)cc1Br [compound 313]
Test G disease control rating (Septoria tritici; wheat leaf blotch): 100% | Test C disease control rating (Alternaria solani; tomato early blight): 97% | Test I disease control rating ([1]; wheat leaf rust): 100% | Test J disease control rating ([2]; wheat powdery mildew): 100% | Test H disease control rating ([3]; wheat leaf rust): 91% | Test F disease control rating (Septoria nodorum; Septoria glume blotch on wheat): 51% | Test B disease control rating (Botrytis cinerea; tomato Botrytis): 100%

Cc1nn(C)c(Nc2ccc(F)cc2)c1-c1cccc(F)c1F [compound 205]
Test G rating (% disease control) (Septoria tritici; [4]): 99% | Test C rating (% disease control) (Alternaria solani; [5]): 17% | Test I rating (% disease control) [1, 6]: 91% | Test J rating (% disease control) [2, 7]: 100% | Test H rating (% disease control) [3, 8]: 0% | Test F rating (% disease control) (Septoria nodorum; [9]): 0% | Test B rating (% disease control) (Botrytis cinerea; [10]): 100%

COc1ccc(Nc2c(-c3c(Cl)cccc3Cl)c(C)nn2C)cc1 [compound 333]
Test G disease control rating (Septoria tritici; wheat leaf blotch): 100% | Test C disease control rating (Alternaria solani; tomato early blight): 0% | Test I disease control rating ([1]; wheat leaf rust): 74% | Test J disease control rating ([2]; wheat powdery mildew): 0% | Test H disease control rating ([3]; wheat leaf rust): 9% | Test F disease control rating (Septoria nodorum; Septoria glume blotch on wheat): 0% | Test B disease control rating (Botrytis cinerea; tomato Botrytis): 100%

COc1ccc(Nc2c(-c3ccc(Cl)cc3)c(C)nn2C)cc1 [compound 56]
Test G rating (% disease control) (Septoria tritici; [11]): 99% | Test C rating (% disease control) (Alternaria solani; [12]): 0% | Test I rating (% disease control) [1, 13]: 28% | Test J rating (% disease control) [2, 14]: 64% | Test H rating (% disease control) [3, 15]: 0% | Test F rating (% disease control) (Septoria nodorum; [16]): 0% | Test B rating (% disease control) (Botrytis cinerea; [17]): 43%

COc1cc(F)c(Nc2c(-c3cccc(F)c3F)c(C)nn2C)c(F)c1 [compound 204]
Test G rating (% disease control), marked * (Septoria tritici; wheat leaf blotch, rating marked with asterisk (*), meaning not given): 99* % | Test C rating (% disease control), marked * (Alternaria solani; tomato early blight, rating marked with asterisk (*), meaning not given): 77* % | Test I rating (% disease control), marked * ([1]; wheat leaf rust, preventive, rating marked with asterisk (*), meaning not given): 86* % | Test J rating (% disease control), marked * ([2]; wheat powdery mildew, rating marked with asterisk (*), meaning not given): 99* % | Test H rating (% disease control), marked * ([3]; wheat leaf rust, curative, rating marked with asterisk (*), meaning not given): 0* % | Test F rating (% disease control), marked * (Septoria nodorum; Septoria glume blotch, rating marked with asterisk (*), meaning not given): 0* % | Test B rating (% disease control), marked * (Botrytis cinerea; tomato Botrytis, rating marked with asterisk (*), meaning not given): 100* %

Cc1nn(C)c(Oc2cc(F)c(C#N)cc2F)c1-c1ccc(F)cc1Br [compound 233]
Test G rating (% disease control) (Septoria tritici; [4]): 100% | Test C rating (% disease control) (Alternaria solani; [5]): 99% | Test I rating (% disease control) [1, 6]: 100% | Test J rating (% disease control) [2, 7]: 100% | Test H rating (% disease control) [3, 8]: 0% | Test F rating (% disease control) (Septoria nodorum; [9]): 99% | Test B rating (% disease control) (Botrytis cinerea; [10]): 100%

— US10448639B2, “Fungicidal pyrazoles” (FMC CORPORATION, priority 2009, dated 2019)
